Results published in paper PMC9415638, “Discovery of novel thiazolyl-pyrazolines as dual EGFR and VEGFR-2 inhibitors endowed with in vitro antitumor activity towards non-small lung cancer” (Journal of Enzyme Inhibition and Medicinal Chemistry, 2022).

Key:
[1] = tested on: A549 lung cancer cells; test: Anti-proliferative MTT assay; details: Homo sapiens, A549, 24 h; for inhibition at 10 µM: read-out: % Growth inhibition ± SEM A549; for IC50: read-out: IC50 (µM) ± SEM A549
[2] = tested on: WI-38 human lung fibroblast cells; test: MTT cytotoxicity assay on normal cells; format: cell-based; details: for IC50: Homo sapiens, WI-38, normal lung fibroblasts, MTT, 24 h, n = 3, read-out: IC50 (µM) ± SEM WI-38; for Mean tumour selectivity: S. I. (WI-38/A549 and H441)
Experimental: All chemicals used in this study were analytical or cell-culture grade.
Cytotoxicity was measured using the MTT assay. […] The medium was aspirated and 150 μL DMSO was added to solubilise MTT formazan crystals. The plates were then shaken, and the optical density was determined at 570 nm using an ELISA plate reader (Model 550, Bio-Rad, Hercules, CA). At least three independent experiments were performed.

[3] = target: ROCK1 (Homo sapiens, UniProt Q13464); test: Kinase selectivity profiling, Z'-LYTE FRET
[4] = target: ABL1 (Homo sapiens, UniProt P00519); test: Kinase selectivity profiling, Z'-LYTE FRET
[5] = target: EPHB2 (Homo sapiens, UniProt P29323); test: Kinase selectivity profiling, Z'-LYTE FRET
[6] = target: TEK (Homo sapiens, UniProt Q02763); test: Kinase selectivity profiling, Z'-LYTE FRET
[7] = target: CLK1 (Homo sapiens, UniProt P49759); test: Kinase selectivity profiling, Z'-LYTE FRET
[8] = target: T1, recombinant human VEGFR-2/KDR (Homo sapiens, UniProt P35968); test: VEGFR-2 kinase assay (VEGFR-2/KDR ELISA kit); format: biochemical; details: read-out: IC50 (nM) ± SEM VEGFR-2
T1 construct: purchased
Experimental: The EGFR kinase assay was carried out in 96-well plates coated with PGT (poly l-glutamic acid l-tyrosine, 4:1, Sigma Aldrich, St. Louis, MO) as previously described. IC50 values were calculated using GraphPad Prism 5. Each experiment was carried out at least three times. The VEGFR-2 kinase assay was carried out in 96-well streptavidin coated plate using recombinant human VEGFR-2/KDR ELISA kit according to manufacturer’s instructions.

[9] = tested on: H441 lung cancer cells; test: Anti-proliferative MTT assay; details: Homo sapiens, NCI-H441, 24 h; for inhibition at 10 µM: read-out: % Growth inhibition ± SEM H441; for IC50: read-out: IC50 (µM) ± SEM H441, MTT, 24 h, n = 3
[10] = tested on: HepG2 liver cancer cells; test: Anti-proliferative MTT assay; format: cell-based; details: Homo sapiens, 24 h, read-out: % Growth inhibition ± SEM HepG2
Experimental: (§1) To evaluate the anti-proliferative activity of the synthesised thiazolyl-pyrazoline derivatives (7a–7d, 10a–10d, and 13a–13f), a preliminary in vitro one dose (10 µM) anticancer assay was performed. Nine cell lines derived from five tumour subpanels were examined; leukaemia (K562 and KG-1a), breast (MCF-7, BT-549 and HCC70), lung (A549 and H441), colon (HCT116) and liver (HepG2) cancer cell lines. The compounds were added at a single concentration (10 µM) and the cultures were incubated for 24 h, then the per cent growth inhibition (%GI) was calculated.
(§2) Human leukaemia (K562 and KG-1a), breast (MCF-7, BT-549 and HCC70), lung (A549, H441, NCI-H1650 and NCI-H1975), colon (HCT116), liver (HepG2) cancer cell lines and WI-38 human lung fibroblast cell line were obtained from the American Type Culture Collection (ATCC; Manassas, VA) and were cultured in their suitable media containing 10% foetal bovine serum (FBS; Sigma-Aldrich) in a humidified atmosphere with 5% CO2 at 37 °C. Gefitinib and vandetanib were purchased from Sigma-Aldrich. All chemicals used in this study were analytical or cell-culture grade.
(§3) Cytotoxicity was measured using the MTT assay. Human leukaemia (K562 and KG-1a), breast (MCF-7, BT-549 and HCC70), lung (A549, H441, NCI-H1650 and NCI-H1975), colon (HCT116), liver (HepG2) cancer cell lines and WI-38 human lung fibroblast cell line were plated at a density of 1 × 10^4 cells per well in 96-well plates overnight and then treated with the compounds. After 24 h treatment, 20 μL of MTT solution (2 mg/mL in phosphate-buffered saline [PBS]) was added to each well and the cells were cultured for another 4 h at 37 °C. The medium was aspirated and 150 μL DMSO was added to solubilise MTT formazan crystals. The plates were then shaken, and the optical density was determined at 570 nm using an ELISA plate reader (Model 550, Bio-Rad, Hercules, CA). At least three independent experiments were performed. The IC50 values were calculated using GraphPad Prism 5 (Version 5.01, GraphPad Software, San Diego, CA).

[11] = tested on: KG-1a leukaemia cells; test: Anti-proliferative MTT assay; format: cell-based; details: Homo sapiens, 24 h, read-out: % Growth inhibition ± SEM KG-1a
Experimental: as §1, §2, §3

[12] = target: LCK (Homo sapiens, UniProt P06239); test: Kinase selectivity profiling, Z'-LYTE FRET
[13] = target: AKT1 (Homo sapiens, UniProt P31749); test: Kinase selectivity profiling, Z'-LYTE FRET
[14] = tested on: A549 cells; test: Annexin V-FITC/PI apoptosis assay; format: cell-based, human; details: A549, 5 μM, 24 h; control 5.4% (10b), […] (10d)
Experimental: Figure 7. Apoptotic effect of compounds 10b and 10d on A549 cells. (A) Representative cytograms of apoptotic A549 cells stimulated with 0 (control), 2.5 or 5 μM 10b or 10d, for 24 h. The lower-right (annexin V + PI- cells) and the upper-right (annexin V + PI + cells) quadrants show early and late apoptotic cells, and the lower-left (annexin V-PI- cells) and the upper-left ([…]) quadrants represent viable and necrotic cells, respectively. (B) Quantification of annexin V-positive apoptotic cells upon stimulation with 10b or 10d. The values are the means ± SEM of three different experiments. *p < 0.05 and *p < 0.01 indicate significant differences compared with control.
DNA content was measured using 7-aminoactinmycin D (7AAD) (Biotium, Inc., Hayward, CA) staining and is commonly used for cell cycle phase analysis as previously described. Apoptosis was evaluated using the annexin V/propidium iodide (PI) staining kit (BioLegend, San Diego, CA) according to the manufacturer’s instructions and as previously described.

[15] = target: PKC; test: Kinase selectivity profiling, Z'-LYTE FRET; details: read-out: IC50 (nM) PKC

T1 sequence (P35968 20-1356): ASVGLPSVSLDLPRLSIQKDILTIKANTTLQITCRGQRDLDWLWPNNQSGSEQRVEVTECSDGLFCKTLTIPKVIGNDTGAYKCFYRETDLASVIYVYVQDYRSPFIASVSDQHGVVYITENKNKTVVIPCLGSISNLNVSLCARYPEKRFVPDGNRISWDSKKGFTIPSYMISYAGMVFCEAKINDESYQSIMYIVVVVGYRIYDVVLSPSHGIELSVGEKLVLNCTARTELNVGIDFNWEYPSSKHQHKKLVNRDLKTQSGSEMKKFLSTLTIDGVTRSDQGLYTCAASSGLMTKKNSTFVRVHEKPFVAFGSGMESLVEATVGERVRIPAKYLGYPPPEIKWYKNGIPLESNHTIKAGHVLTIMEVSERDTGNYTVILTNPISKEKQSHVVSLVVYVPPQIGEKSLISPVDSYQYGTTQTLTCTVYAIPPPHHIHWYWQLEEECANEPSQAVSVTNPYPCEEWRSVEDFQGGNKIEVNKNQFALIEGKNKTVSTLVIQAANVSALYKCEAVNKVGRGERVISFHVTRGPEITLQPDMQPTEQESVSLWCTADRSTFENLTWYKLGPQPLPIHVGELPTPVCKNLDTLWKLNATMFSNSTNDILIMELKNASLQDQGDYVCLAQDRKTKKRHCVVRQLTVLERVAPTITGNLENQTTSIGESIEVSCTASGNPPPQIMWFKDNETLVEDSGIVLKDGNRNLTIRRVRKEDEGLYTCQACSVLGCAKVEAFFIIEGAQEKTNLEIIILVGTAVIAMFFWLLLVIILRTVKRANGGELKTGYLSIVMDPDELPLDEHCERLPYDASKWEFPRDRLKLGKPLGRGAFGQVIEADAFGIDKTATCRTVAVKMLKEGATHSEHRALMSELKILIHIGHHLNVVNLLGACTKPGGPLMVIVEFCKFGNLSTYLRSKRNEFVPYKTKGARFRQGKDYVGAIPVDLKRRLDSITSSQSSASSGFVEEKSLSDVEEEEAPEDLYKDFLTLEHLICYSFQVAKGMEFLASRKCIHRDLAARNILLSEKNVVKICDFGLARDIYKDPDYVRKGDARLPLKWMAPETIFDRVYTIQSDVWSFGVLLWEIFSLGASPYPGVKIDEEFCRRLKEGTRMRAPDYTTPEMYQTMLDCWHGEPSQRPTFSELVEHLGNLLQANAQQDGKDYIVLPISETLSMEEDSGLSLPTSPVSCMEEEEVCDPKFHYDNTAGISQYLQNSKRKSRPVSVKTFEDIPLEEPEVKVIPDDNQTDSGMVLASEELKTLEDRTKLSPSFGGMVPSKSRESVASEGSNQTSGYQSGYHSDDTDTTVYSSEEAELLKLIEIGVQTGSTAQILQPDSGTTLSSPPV
Sequence of EPHB2 (P29323 19-1055): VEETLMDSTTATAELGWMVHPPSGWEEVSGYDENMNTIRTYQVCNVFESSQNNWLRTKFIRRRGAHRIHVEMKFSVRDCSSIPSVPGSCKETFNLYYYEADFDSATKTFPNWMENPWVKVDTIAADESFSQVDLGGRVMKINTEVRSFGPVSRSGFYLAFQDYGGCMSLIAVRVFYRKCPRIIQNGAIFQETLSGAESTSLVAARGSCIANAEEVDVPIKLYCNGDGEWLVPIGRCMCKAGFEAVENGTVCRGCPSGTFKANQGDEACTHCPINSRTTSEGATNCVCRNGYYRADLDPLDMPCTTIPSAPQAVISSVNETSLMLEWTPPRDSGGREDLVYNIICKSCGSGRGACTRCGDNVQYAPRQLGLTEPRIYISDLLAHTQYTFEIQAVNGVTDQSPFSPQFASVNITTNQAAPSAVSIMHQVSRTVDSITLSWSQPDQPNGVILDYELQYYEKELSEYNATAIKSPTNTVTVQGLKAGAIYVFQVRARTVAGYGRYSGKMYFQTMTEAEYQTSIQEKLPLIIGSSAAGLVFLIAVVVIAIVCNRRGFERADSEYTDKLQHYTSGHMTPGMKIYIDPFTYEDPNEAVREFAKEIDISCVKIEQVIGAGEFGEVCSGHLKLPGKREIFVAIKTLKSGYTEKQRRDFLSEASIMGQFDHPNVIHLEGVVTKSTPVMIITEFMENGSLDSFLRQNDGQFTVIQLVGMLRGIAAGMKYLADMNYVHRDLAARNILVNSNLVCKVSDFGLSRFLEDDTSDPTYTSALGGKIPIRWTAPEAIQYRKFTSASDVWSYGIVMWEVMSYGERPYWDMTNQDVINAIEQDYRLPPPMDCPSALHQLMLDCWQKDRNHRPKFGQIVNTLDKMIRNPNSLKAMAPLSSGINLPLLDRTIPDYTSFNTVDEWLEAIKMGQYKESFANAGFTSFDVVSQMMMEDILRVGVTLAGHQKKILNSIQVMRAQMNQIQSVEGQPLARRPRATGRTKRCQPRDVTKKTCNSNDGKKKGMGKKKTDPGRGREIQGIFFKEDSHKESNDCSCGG
Sequence of TEK (Q02763 23-1124): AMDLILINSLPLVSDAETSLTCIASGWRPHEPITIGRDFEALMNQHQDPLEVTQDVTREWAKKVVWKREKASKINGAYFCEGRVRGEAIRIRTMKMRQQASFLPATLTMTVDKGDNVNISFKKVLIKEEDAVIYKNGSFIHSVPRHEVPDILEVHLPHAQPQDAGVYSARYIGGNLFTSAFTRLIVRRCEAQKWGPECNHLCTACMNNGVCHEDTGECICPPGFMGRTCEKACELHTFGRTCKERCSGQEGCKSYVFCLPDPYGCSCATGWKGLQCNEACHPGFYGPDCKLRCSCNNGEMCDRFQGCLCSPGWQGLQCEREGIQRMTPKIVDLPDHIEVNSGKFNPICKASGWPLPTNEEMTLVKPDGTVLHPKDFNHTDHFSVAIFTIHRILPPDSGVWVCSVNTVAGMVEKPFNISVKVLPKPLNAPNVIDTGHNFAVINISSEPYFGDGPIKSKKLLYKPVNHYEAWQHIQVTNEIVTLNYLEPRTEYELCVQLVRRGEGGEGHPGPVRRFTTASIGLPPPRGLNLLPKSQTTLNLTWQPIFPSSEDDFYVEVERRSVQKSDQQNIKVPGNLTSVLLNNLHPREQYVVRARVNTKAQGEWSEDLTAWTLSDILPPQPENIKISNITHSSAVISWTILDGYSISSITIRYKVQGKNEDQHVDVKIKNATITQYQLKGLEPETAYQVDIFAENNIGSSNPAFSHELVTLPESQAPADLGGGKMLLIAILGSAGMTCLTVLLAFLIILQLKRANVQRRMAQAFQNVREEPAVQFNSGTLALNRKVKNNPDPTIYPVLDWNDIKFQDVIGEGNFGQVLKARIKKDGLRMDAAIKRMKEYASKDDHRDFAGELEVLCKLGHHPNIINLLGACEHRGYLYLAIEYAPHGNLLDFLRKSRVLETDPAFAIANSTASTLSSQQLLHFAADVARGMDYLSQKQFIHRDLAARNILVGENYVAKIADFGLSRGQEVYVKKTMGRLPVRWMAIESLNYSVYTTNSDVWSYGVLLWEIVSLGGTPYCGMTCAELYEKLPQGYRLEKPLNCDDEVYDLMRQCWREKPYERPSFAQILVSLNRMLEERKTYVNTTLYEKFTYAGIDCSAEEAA
Sequence of ABL1 (P00519 whole entry): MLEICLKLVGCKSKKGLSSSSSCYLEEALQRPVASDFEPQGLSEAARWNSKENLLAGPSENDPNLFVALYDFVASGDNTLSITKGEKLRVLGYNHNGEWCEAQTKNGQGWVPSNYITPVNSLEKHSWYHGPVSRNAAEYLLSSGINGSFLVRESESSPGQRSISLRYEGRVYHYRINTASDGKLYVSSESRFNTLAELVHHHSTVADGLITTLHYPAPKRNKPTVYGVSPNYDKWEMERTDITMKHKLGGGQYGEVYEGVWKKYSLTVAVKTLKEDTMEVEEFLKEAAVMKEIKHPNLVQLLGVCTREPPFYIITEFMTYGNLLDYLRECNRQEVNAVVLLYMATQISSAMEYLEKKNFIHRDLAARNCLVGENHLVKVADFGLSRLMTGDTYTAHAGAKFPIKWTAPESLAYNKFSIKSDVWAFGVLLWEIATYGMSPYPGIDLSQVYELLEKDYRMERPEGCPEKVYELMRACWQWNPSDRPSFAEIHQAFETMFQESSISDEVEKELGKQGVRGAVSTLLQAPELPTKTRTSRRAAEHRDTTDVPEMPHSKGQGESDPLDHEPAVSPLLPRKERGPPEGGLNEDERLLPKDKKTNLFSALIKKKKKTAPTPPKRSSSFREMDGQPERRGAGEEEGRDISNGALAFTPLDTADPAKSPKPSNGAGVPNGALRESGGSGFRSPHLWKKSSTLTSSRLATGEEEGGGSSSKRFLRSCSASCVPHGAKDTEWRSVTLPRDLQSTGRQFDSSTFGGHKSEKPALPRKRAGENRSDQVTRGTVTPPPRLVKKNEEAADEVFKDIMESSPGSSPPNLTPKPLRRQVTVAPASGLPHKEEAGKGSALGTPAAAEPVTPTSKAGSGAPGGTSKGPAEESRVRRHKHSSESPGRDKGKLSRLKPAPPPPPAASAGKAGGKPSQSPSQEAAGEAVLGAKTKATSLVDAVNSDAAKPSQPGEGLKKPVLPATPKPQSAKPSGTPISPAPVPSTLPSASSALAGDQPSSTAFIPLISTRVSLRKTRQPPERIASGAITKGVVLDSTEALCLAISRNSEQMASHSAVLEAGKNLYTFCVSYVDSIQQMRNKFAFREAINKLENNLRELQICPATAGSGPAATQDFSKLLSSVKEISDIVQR
Sequence of CLK1 (P49759 whole entry): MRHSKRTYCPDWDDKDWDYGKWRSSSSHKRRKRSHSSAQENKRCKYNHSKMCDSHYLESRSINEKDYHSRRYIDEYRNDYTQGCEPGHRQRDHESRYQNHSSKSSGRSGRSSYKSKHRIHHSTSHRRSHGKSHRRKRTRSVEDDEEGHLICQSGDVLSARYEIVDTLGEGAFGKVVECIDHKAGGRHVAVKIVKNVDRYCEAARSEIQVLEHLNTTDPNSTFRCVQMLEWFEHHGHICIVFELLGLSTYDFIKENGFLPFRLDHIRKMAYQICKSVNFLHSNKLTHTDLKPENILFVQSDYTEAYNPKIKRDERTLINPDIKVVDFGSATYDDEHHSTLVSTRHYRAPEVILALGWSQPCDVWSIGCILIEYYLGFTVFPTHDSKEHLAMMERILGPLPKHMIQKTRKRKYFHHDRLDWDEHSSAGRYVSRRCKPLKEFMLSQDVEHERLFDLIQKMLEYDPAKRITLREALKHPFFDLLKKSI

Compound	inhibition at 10 µM [1]	IC50 [1]	IC50 [2]	Mean tumour selectivity [2]	IC50 [3]	IC50 [4]	IC50 [5]	IC50 [6]	IC50 [7]	IC50 [8]	inhibition at 10 µM [9]	IC50 [9]	inhibition at 10 µM [10]	inhibition at 10 µM [11]	IC50 [12]	IC50 [13]	annexin V-positive apoptotic cells [14]	IC50 [15]
CCOC(=O)c1sc(N2N=C(c3ccc(Cl)cc3Cl)CC2c2ccc(OC)cc2)nc1C (stereo not drawn) [Compound 10b, Ethyl-2-(3-(2,4-dichlorophenyl)-5-(4-methoxyphenyl)-4,5-dihydro-1H-pyrazol-1-yl)-4-methylthiazole-5-carboxylate]	88.3 ± 4.9%	4.2 ± 0.8 µM	72.4 ± 7.2 µM	16.1	> 2000 nM	> 2000 nM	> 2000 nM	> 2000 nM	1070 ± 54 nM	78.4 ± 1.5 nM	79.1 ± 2.6%	4.8 ± 0.1 µM	50.6 ± 2.2%	31 ± 2.5%	> 2000 nM	816 ± 38 nM	16.5%	> 2000 nM
COc1ccc(C2CC(c3ccc(Cl)cc3Cl)=NN2c2nc(C)c(C(=O)Nc3ccccc3)s2)cc1OC (stereo not drawn) [Compound 10d, 2-(3-(2,4-Dichlorophenyl)-5-(3,4-dimethoxyphenyl)-4,5-dihydro-1H-pyrazol-1-yl)-4-methyl-N-phenylthiazole-5-carboxamide]	95.3 ± 5.3%	2.9 ± 0.2 µM	51.4 ± 3.5 µM	15.3	> 2000 nM	> 2000 nM	> 2000 nM	> 2000 nM	798 ± 19 nM	43 ± 2.4 nM	89.2 ± 3.9%	3.8 ± 0.5 µM	65.5 ± 3.9%	57.2 ± 3.4%	> 2000 nM	702 ± 24 nM	28.5%	> 2000 nM
